Data published in PMC3961306, “Comparison of the Cancer Gene Targeting and Biochemical Selectivities of All Targeted Kinase Inhibitors Approved for Clinical Use” (PLoS ONE, 2014).

Experiments:
Assay in all cases: Kinase profiling in a biochemical assay panel (mobility shift assays and ELISA), %-inhibition at 1 μM; selectivity entropy
[1] = target: panel of more than 300 wild-type and mutant kinases (313 kinase panel) (Homo sapiens, UniProt Q15418); conditions: kinase RSK1; 1 μM
[2] = target: T1, panel of more than 300 wild-type and mutant kinases (313 kinase panel) (Homo sapiens, UniProt Q08881); conditions: kinase ITK; compound at 1 μM
T1 sequence (Q08881 1-620): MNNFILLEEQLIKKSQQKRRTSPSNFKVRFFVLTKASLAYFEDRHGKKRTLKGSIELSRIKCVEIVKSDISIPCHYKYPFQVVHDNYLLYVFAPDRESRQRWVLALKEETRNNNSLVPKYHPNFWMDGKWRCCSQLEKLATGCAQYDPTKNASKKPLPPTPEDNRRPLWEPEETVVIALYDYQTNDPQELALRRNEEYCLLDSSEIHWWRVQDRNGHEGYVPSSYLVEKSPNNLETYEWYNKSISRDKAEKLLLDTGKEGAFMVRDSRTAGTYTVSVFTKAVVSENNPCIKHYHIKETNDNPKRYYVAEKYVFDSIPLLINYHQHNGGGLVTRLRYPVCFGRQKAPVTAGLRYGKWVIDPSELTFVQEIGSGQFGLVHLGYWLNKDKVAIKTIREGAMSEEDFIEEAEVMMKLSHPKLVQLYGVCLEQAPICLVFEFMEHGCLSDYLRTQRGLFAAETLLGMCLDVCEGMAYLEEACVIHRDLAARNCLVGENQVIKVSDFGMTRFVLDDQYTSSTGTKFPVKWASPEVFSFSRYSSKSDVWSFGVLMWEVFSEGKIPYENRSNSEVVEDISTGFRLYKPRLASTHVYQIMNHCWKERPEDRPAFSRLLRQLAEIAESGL

[3] = target: T2, panel of more than 300 wild-type and mutant kinases (313 kinase panel) (Homo sapiens, UniProt P52333); conditions: kinase JAK3; compound at 1 μM
T2 sequence (P52333 1-1124): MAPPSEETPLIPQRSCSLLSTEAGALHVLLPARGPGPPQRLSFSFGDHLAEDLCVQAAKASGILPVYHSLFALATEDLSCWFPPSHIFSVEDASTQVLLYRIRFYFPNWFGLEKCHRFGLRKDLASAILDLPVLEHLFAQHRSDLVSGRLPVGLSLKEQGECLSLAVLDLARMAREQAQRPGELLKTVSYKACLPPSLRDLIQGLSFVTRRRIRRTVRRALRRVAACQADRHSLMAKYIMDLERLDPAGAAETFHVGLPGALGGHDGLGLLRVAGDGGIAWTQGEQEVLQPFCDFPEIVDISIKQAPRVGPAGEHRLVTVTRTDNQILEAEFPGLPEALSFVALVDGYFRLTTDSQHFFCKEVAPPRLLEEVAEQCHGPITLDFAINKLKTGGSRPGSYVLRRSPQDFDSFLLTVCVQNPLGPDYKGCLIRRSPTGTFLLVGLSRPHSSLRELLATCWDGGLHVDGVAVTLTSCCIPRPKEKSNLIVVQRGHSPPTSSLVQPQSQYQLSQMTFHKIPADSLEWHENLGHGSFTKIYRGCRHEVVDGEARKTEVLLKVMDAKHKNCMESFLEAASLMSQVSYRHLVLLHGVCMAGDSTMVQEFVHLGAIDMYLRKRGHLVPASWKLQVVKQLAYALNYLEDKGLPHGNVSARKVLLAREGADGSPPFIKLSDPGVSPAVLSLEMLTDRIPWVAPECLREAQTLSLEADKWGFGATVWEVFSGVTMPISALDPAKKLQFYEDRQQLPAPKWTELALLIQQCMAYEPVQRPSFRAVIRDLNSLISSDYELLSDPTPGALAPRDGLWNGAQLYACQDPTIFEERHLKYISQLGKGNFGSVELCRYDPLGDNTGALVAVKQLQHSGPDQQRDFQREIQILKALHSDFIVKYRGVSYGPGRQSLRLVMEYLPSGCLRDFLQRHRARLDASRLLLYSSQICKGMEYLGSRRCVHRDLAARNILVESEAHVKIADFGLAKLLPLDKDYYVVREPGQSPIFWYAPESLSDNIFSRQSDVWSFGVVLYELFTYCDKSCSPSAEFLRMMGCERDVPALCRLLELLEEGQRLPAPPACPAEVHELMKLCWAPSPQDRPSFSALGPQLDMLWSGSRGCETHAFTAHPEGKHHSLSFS

[4] = target: panel of more than 300 wild-type and mutant kinases (313 kinase panel) (Homo sapiens, UniProt Q8IY84); conditions: kinase MGC42105; 1 μM
[5] = target: panel of more than 300 wild-type and mutant kinases (313 kinase panel) (Homo sapiens, UniProt P54646); conditions: kinase AMPKα2/β1/γ1; 1 μM compound
[6] = target: panel of more than 300 wild-type and mutant kinases (313 kinase panel) (Homo sapiens, UniProt P07949, S891A); conditions: kinase RET(S891A); 1 μM
[7] = target: panel of more than 300 wild-type and mutant kinases (313 kinase panel) (Homo sapiens, UniProt P16591); conditions: kinase FER; compound at 1 μM
[8] = target: panel of more than 300 wild-type and mutant kinases (313 kinase panel) (Homo sapiens, UniProt P49841); conditions: kinase GSK3β; compound at 1 μM
[9] = target: panel of more than 300 wild-type and mutant kinases (313 kinase panel) (Homo sapiens, UniProt P16234); conditions: kinase PDGFRα; 1 μM
panel of more than 300 wild-type and mutant kinases (313 kinase panel) (Homo sapiens, UniProt P16234), sequence (P16234 24-1089, change not shown): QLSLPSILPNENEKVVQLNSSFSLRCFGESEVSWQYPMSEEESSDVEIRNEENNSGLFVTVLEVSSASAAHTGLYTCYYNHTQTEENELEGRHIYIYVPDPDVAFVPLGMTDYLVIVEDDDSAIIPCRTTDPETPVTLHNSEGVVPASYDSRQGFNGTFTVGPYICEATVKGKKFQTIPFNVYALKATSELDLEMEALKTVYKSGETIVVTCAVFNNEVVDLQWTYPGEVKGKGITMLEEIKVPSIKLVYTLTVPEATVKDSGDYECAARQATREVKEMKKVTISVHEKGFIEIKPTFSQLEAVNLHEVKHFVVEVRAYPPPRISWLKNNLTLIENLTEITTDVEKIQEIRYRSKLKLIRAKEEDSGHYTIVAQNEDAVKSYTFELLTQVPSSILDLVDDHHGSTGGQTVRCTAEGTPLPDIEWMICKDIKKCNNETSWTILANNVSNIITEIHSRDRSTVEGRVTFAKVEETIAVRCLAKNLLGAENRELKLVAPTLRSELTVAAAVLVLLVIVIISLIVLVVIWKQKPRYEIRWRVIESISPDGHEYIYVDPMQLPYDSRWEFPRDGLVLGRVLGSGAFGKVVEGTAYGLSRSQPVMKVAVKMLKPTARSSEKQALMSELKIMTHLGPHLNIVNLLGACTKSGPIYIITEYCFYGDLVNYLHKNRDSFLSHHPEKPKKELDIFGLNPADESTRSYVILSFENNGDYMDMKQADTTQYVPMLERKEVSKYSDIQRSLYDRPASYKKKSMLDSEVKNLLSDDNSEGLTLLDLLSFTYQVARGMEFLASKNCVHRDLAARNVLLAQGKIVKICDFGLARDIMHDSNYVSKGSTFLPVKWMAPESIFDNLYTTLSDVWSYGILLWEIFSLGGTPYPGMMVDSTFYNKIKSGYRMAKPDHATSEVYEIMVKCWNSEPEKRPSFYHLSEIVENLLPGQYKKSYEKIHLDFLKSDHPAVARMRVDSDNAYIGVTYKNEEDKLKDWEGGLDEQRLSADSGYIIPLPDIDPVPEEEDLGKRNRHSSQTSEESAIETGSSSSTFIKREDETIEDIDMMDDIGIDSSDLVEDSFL

panel of more than 300 wild-type and mutant kinases (313 kinase panel) (Homo sapiens, UniProt P07949, S891A), sequence (P07949 29-1114 S891A): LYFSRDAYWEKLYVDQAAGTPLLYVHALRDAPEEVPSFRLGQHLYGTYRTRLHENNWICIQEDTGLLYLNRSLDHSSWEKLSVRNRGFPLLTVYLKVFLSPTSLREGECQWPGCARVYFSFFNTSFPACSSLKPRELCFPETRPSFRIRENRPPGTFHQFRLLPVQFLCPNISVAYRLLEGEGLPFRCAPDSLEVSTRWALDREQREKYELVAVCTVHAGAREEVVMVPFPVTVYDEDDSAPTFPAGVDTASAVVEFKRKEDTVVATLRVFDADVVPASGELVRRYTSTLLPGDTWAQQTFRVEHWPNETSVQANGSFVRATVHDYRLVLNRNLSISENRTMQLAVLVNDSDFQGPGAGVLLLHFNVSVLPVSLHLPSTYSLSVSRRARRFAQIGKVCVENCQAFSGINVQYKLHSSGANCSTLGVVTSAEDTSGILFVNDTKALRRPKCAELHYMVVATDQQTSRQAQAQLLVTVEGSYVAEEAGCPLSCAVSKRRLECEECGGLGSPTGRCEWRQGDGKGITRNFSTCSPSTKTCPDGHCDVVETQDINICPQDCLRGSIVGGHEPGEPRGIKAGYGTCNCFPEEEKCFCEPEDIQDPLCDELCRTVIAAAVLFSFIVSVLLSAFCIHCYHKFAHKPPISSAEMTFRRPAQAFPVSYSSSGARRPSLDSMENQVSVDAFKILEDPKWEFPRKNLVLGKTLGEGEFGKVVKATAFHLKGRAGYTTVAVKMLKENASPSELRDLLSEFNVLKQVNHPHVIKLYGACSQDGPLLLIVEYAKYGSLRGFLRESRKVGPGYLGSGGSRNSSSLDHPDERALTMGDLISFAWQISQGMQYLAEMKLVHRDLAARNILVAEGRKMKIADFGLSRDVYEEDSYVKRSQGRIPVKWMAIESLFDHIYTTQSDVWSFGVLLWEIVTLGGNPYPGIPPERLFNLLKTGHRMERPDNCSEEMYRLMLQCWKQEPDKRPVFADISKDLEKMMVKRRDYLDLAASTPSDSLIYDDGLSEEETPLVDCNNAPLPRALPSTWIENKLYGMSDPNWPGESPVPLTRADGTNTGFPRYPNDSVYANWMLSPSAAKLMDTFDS
panel of more than 300 wild-type and mutant kinases (313 kinase panel) (Homo sapiens, UniProt P16591), sequence (P16591 whole entry, change not shown): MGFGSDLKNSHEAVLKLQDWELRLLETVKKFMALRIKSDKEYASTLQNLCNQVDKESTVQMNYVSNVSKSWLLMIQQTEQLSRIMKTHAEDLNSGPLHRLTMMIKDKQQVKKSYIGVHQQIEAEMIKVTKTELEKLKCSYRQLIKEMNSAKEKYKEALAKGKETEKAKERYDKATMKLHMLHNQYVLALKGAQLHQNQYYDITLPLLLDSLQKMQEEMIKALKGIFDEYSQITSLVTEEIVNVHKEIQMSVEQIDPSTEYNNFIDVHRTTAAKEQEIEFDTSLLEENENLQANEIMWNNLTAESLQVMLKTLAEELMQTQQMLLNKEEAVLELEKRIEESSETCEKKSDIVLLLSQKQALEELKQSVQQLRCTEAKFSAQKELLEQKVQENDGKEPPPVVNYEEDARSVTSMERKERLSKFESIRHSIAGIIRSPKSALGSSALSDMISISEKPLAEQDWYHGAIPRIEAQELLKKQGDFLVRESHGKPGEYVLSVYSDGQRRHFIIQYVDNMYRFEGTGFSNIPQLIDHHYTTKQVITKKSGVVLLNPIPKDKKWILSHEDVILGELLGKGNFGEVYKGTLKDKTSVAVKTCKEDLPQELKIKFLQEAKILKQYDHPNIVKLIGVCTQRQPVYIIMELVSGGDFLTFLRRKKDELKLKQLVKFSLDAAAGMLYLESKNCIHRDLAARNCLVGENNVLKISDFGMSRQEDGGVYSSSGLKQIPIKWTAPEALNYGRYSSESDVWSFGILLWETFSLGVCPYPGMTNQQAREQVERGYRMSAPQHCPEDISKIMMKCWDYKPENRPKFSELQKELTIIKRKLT

Row | SMILES | %-inhibition of RSK1 [1] [%] | %-inhibition of ITK [2] [%] | %-inhibition of JAK3 [3] [%] | %-inhibition of MGC42105 [4] [%] | %-inhibition, AMPKα2/β1/γ1 [5] [%] | %-inhibition of RET(S891A) [6] [%] | %-inhibition of FER [7] [%] | %-inhibition of GSK3β [8] [%] | %-inhibition of PDGFRα [9] [%]
1 | CO[C@H]1C[C@@H]2CC[C@@H](C)[C@@](O)(O2)C(=O)C(=O)N2CCCC[C@H]2C(=O)O[C@H]([C@H](C)C[C@@H]2CC[C@@H](OCCO)[C@H](OC)C2)CC(=O)[C@H](C)/C=C(\C)[C@@H](O)[C@@H](OC)C(=O)[C@H](C)C[C@H](C)/C=C/C=C/C=C/1C [everolimus] | -13 | -3.61 | -4.43 | -4 | -6 | -3 | -0.138 | -6 | 1.15
2 | CC(=O)Nc1cccc(-n2c(=O)n(C3CC3)c(=O)c3c(Nc4ccc(I)cc4F)n(C)c(=O)c(C)c32)c1 [trametinib] | -10 | -7.56 | 6 | 1.39 | 1.21 | -1.24 | 4.28 | -15 | 4.53
3 | CO[C@H]1C[C@@H]2CC[C@@H](C)[C@@](O)(O2)C(=O)C(=O)N2CCCC[C@H]2C(=O)O[C@H]([C@H](C)C[C@@H]2CC[C@@H](OC(=O)C(C)(CO)CO)[C@H](OC)C2)CC(=O)[C@H](C)/C=C(\C)[C@@H](O)[C@@H](OC)C(=O)[C@H](C)C[C@H](C)/C=C/C=C/C=C/1C [temsirolimus] | -6.45 | -1.7 | -2 | -11 | -4 | -2.19 | -4 | -7.62 | 3.45
